Source: publication PMC9492542, “Brain-restricted mTOR inhibition with binary pharmacology” (Nature, 2022)
Several values for one entry are separate records, joined by “and”; a condition that tells them apart may be missing. Equal values may be shown once. Read-outs that look alike come from different tables or passages of the source.

What was measured:
[1] = target: T1, FKBP12 (Homo sapiens, UniProt P62942); assay: Competition fluorescence polarization assay with FITC-rapamycin tracer; assay type: binding
T1 construct: His-tag (HRV 3C cleavable) (cleaved yes); made in house; host or cells: Escherichia coli BL21(DE3)
T1 sequence (P62942 whole entry): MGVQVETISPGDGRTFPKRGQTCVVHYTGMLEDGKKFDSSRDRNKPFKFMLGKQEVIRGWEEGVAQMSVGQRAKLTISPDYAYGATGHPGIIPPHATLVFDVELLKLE
Description: Compound binding affinity was determined using a competition fluorescence polarization assay. […] The assay buffer was 20 mM HEPES pH 7.5 and 0.01% Triton X-100. […] Data were fitted to a three-parameter sigmoidal curve to derive IC50 values. Ki of the compounds were calculated using a tool provided by S. Wang’s laboratory (http://www.umich.edu/~shaomengwanglab/software/calc_ki/index.html). Data were plotted in GraphPad Prism 9.0.

[2] = target: LRRK2 (Mus musculus, UniProt Q5S006); assay: Phospho-LRRK2 (S935) quantification by TR-FRET in RAW264.7 cells; settings: for P-LRRK2(S935) in RAW264.7 cells: replicate raw data
LRRK2 (Mus musculus, UniProt Q5S006), sequence (Q5S006 whole entry): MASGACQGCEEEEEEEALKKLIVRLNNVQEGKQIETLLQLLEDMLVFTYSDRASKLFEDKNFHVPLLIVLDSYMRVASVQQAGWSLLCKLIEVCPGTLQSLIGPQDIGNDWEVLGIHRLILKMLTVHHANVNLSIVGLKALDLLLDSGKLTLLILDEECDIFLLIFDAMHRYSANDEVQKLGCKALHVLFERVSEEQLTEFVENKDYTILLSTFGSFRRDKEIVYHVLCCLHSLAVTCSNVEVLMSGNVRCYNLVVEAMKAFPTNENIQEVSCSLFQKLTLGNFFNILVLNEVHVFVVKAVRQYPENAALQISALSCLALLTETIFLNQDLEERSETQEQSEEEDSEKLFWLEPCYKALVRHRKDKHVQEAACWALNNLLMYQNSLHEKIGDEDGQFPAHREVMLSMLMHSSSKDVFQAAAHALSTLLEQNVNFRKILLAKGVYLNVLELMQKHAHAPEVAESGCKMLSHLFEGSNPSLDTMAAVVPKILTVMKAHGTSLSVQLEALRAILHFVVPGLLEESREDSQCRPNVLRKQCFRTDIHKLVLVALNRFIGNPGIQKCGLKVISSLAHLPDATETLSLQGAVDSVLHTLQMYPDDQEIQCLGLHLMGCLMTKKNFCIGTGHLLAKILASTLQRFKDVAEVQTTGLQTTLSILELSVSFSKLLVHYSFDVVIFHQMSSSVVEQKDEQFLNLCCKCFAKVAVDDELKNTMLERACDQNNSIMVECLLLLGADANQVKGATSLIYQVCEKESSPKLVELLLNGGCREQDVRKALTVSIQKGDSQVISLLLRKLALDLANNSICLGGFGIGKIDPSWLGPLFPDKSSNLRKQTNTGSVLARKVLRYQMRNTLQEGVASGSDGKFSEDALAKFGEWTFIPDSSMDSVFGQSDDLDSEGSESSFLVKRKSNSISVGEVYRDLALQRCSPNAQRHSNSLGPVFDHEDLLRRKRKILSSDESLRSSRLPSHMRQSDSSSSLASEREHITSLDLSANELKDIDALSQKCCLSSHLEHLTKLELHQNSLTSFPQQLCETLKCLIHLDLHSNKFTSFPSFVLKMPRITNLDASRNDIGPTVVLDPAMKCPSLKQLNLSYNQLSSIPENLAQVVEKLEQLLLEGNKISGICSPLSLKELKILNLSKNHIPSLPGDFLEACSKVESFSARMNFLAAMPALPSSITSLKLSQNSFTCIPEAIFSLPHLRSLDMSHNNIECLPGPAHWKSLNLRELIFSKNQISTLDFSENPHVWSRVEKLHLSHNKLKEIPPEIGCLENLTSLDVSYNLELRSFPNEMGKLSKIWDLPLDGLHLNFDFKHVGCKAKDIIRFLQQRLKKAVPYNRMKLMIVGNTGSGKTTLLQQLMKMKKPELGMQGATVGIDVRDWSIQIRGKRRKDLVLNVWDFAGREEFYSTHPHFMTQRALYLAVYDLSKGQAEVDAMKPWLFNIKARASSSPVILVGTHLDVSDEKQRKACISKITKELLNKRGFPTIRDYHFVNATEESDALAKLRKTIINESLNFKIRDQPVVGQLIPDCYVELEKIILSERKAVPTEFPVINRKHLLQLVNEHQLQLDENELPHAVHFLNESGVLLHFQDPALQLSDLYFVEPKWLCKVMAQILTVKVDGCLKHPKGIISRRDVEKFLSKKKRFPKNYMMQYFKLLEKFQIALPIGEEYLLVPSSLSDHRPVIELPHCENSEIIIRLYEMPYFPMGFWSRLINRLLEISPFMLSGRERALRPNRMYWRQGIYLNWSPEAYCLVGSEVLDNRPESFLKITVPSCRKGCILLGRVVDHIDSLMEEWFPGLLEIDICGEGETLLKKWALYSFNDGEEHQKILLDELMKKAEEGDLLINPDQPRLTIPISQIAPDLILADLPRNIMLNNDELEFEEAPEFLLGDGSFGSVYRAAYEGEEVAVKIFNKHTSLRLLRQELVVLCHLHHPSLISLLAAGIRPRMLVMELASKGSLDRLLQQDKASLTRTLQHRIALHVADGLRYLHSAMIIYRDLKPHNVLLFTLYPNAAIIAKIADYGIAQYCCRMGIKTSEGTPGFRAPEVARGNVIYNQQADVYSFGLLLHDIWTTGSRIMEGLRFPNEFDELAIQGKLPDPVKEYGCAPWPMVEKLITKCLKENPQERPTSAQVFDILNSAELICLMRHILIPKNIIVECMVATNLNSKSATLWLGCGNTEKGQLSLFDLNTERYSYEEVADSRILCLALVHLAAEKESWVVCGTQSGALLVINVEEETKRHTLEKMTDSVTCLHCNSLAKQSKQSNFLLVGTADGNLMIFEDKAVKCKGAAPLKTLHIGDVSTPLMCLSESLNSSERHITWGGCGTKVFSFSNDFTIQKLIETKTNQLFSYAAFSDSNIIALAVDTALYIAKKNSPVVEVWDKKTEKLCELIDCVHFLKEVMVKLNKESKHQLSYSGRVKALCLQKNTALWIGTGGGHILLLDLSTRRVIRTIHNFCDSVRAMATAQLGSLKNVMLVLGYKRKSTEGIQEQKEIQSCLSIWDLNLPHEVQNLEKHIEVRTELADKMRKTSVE
Description: Phospho-LRRK2 (S935) was quantified in drug-treated cells using a Phospho-LRRK2 (Ser935) cellular kit (Cisbio) following the manufacturer’s instructions. […] Cells were treated with compounds at the indicated concentrations for 2 h. Medium was removed by aspiration and the cells were rinsed with ice-cold PBS (1 ml). Cells were lysed with 100 µl Cisbio 1X lysis buffer at 23 °C directly in plate for 30 min. […] Clarified lysate (16 µl) was dispensed into one well of a low-volume, round-bottom 384-well plate, and 4 µl LRRK2–phospho-LRRK2 (S935) antibody master mix (Cisbio) was added to each well. The plate was incubated at 23 °C for 4 h.
The TR-FRET signal was calculated as the ratio fluorescence intensity [read B]/[read A].

[3] = target: T2, LRRK2 (Homo sapiens, UniProt Q5S007); assay: In vitro LRRK2 kinase inhibition assay (SelectScreen Adapta), with or without 10 µM FKBP12; assay type: biochemical
T2 construct: purchased SelectScreen Services (Thermo Fisher Scientific)
T2 sequence (Q5S007 whole entry): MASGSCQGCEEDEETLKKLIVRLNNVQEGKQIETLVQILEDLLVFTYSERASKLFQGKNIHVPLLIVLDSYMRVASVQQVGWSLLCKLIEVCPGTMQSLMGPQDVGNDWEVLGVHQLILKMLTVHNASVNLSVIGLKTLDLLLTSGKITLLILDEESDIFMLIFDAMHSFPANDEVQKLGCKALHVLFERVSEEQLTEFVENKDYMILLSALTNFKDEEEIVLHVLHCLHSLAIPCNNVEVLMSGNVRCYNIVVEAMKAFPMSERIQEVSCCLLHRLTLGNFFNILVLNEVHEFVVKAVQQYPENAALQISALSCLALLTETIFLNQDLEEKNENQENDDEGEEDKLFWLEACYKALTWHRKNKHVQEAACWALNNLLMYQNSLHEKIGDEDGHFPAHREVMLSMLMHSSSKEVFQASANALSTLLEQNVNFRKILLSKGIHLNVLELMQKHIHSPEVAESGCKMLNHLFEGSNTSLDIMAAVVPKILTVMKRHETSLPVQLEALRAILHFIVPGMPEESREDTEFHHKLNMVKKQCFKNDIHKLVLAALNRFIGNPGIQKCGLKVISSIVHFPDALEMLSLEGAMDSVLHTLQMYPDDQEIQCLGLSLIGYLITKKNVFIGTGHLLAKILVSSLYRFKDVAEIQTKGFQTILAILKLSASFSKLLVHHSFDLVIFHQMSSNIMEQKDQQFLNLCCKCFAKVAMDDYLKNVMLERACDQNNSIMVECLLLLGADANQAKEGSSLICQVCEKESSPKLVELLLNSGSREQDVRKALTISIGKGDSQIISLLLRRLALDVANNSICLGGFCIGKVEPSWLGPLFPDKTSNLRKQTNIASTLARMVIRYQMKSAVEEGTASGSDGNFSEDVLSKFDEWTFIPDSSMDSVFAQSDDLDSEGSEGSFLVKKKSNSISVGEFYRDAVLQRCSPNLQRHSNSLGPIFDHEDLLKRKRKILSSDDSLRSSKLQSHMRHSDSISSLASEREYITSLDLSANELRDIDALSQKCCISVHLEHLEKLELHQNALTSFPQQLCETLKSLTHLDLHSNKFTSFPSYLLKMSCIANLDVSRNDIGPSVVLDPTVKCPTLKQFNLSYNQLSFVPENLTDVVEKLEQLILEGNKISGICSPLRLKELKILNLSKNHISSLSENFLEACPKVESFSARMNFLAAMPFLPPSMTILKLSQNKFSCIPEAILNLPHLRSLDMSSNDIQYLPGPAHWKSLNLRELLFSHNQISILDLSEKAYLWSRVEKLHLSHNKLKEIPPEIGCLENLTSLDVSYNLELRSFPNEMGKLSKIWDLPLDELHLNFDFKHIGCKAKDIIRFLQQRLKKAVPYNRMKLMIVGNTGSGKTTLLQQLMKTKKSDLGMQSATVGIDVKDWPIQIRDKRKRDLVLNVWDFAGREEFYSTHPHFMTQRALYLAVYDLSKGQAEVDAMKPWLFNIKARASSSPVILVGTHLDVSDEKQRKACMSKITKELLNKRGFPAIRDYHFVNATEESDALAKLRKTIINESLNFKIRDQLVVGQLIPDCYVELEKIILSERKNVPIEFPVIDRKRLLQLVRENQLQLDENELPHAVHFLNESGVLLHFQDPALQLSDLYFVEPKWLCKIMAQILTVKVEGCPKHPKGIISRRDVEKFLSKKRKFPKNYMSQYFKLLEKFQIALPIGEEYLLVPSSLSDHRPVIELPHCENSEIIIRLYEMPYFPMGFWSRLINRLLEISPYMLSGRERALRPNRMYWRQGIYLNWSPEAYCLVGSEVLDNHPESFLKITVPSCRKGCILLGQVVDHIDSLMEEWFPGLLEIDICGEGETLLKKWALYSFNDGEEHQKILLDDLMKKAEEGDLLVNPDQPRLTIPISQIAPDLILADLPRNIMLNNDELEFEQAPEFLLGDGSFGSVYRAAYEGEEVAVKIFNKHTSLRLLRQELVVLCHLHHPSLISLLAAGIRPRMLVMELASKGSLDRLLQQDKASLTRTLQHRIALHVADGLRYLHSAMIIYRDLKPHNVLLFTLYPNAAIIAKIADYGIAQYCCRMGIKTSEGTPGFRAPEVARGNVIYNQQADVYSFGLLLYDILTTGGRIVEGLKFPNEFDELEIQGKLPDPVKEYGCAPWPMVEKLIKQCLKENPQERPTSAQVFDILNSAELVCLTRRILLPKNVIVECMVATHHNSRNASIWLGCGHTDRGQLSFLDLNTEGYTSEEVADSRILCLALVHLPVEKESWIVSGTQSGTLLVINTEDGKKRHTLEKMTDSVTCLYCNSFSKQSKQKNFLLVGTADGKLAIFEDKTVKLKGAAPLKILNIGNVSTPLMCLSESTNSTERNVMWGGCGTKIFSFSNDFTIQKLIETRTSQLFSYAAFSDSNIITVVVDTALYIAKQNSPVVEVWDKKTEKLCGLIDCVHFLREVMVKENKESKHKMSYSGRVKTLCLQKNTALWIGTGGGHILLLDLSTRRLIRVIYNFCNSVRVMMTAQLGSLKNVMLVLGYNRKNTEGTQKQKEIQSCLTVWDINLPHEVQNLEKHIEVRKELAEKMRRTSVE
Description: In vitro kinase inhibition assays were performed by SelectScreen Services (Thermo Fisher Scientific) using either Z’-LYTE (mTOR, Src, Csk, EGFR, HER2 and HGK), Adapta (LRRK2) or LanthaScreen (DDR2) assay format (standardized protocols can be accessed on the SelectScreen website: https://www.thermofisher.com/us/en/home/products-and-services/services/custom-services/screening-and-profiling-services/selectscreen-profiling-service/selectscreen-kinase-profiling-service.html. When indicated, recombinant FKBP12 protein was added to the assay mixture to a final concentration of 10 µM.

[4] = 100 nM compound, +1 µM RapaBlock
[5] = read-out: residual kinase activity (LRRK2), 0.495 nM drug, + 10 µM FKBP12
[6] = read-out: residual kinase activity (LRRK2), 0.495 nM drug, no FKBP12
[7] = read-out: residual kinase activity (LRRK2), 1.52 nM drug, + 10 µM FKBP12
[8] = read-out: residual kinase activity (LRRK2), 1.52 nM drug, no FKBP12
[9] = read-out: residual kinase activity (LRRK2), 4.57 nM drug, + 10 µM FKBP12
[10] = read-out: residual kinase activity (LRRK2), 4.57 nM drug, no FKBP12
[11] = read-out: residual kinase activity (LRRK2), 13.7 nM drug, + 10 µM FKBP12
[12] = read-out: residual kinase activity (LRRK2), 13.7 nM drug, no FKBP12
[13] = read-out: residual kinase activity (LRRK2), 41.2 nM drug, + 10 µM FKBP12
[14] = read-out: residual kinase activity (LRRK2), 41.2 nM drug, no FKBP12
[15] = read-out: residual kinase activity (LRRK2), 123 nM drug, + 10 µM FKBP12
[16] = read-out: residual kinase activity (LRRK2), 123 nM drug, no FKBP12
[17] = read-out: residual kinase activity (LRRK2), 370 nM drug, + 10 µM FKBP12
[18] = read-out: residual kinase activity (LRRK2), 370 nM drug, no FKBP12
[19] = read-out: residual kinase activity (LRRK2), 1110 nM drug, + 10 µM FKBP12
[20] = read-out: residual kinase activity (LRRK2), 1110 nM drug, no FKBP12
[21] = read-out: residual kinase activity (LRRK2), 3330 nM drug, + 10 µM FKBP12
[22] = read-out: residual kinase activity (LRRK2), 3330 nM drug, no FKBP12
[23] = read-out: residual kinase activity (LRRK2), 10000 nM drug, + 10 µM FKBP12
[24] = read-out: residual kinase activity (LRRK2), 10000 nM drug, no FKBP12

`CO[C@H]1C[C@@H](C)C/C(C)=C/[C@@H](CCCc2ccncc2)C(=O)C[C@H](O)[C@@H](C)[C@@H](/C(C)=C/[C@@H]2CC[C@@H](O)[C@H](OC)C2)OC(=O)[C@@H]2CCCCN2C(=O)C(=O)[C@]2(O)O[C@H]1[C@@H](OC)C[C@H]2C` [Compound 05-085] gave a Kd [1] of 1.5 nM.
Work on `CO[C@H]1C[C@@H](C)C/C(C)=C/[C@@H](CCCc2cc[n+]([O-])cc2)C(=O)C[C@H](O)[C@@H](C)[C@@H](/C(C)=C/[C@@H]2CC[C@@H](O)[C@H](OC)C2)OC(=O)[C@@H]2CCCCN2C(=O)C(=O)[C@]2(O)O[C@H]1[C@@H](OC)C[C@H]2C` [Compound 05-092] yielded a Kd ([1]; recombinant FKBP12, Extended Data Fig. 2, read-out: Kd (FKBP12)) of 2.5 nM.
`CCNc1nc(Nc2cc(F)c(C(=O)N3CCN(C(=O)CCC[C@@H]4/C=C(\C)C[C@H](C)C[C@H](OC)[C@H]5O[C@@](O)(C(=O)C(=O)N6CCCC[C@H]6C(=O)O[C@H](/C(C)=C/[C@@H]6CC[C@@H](O)[C@H](OC)C6)[C@H](C)[C@@H](O)CC4=O)[C@H](C)C[C@@H]5OC)CC3)cc2OC)ncc1C(F)(F)F` [FK-GNE7915] was tested, and the IC50 [2] was 6.7 nM, the “level of phospho-LRRK2 (S935), % of the basal level” value ([2]; 100 nM FK-GNE7915) was 15% and the “effect on LRRK2 activity” value ([2]; 100 nM FK-GNE7915 + 1 µM RapaBlock) was “had no effect on LRRK2 activity”. For the same molecule, the “P-LRRK2(S935) in RAW264.7 cells” value [2, 4] was 99.2 and 97.5 and 90.7, the “P-LRRK2(S935) in RAW264.7 cells” value ([2]; 100 nM compound, No RapaBlock) was 16.7 and 15.6 and 13.4 and the “P-LRRK2(S935) in RAW264.7 cells” value ([2]; Conc 0.457247 nM, 0 nM = 100) was 84.5 and 90.2 and 94.3. For the same molecule, the “P-LRRK2(S935) in RAW264.7 cells” value ([2]; Conc 1.37174 nM, 0 nM = 100) was 79.4 and 82.9 and 87.4, the “P-LRRK2(S935) in RAW264.7 cells” value ([2]; Conc 4.11523 nM, 0 nM = 100) was 67.8 and 77.9 and 73.6 and the “P-LRRK2(S935) in RAW264.7 cells” value ([2]; Conc 12.3457 nM, 0 nM = 100) was 32.2 and 34.9 (2×). For the same molecule, the “P-LRRK2(S935) in RAW264.7 cells” value ([2]; Conc 37.037 nM, 0 nM = 100) was 13.7 and 14.5 and 16.2, the “P-LRRK2(S935) in RAW264.7 cells” value ([2]; Conc 111.111 nM, 0 nM = 100) was 11.4 (2×) and 13.1 and the “P-LRRK2(S935) in RAW264.7 cells” value ([2]; Conc 333.333 nM, 0 nM = 100) was 13.1 and 12.6 and 11.8. For the same molecule, the “P-LRRK2(S935) in RAW264.7 cells” value ([2]; Conc 1000 nM, 0 nM = 100) was 14 and 15.7 and 13.3, the “residual kinase activity (LRRK2)” value ([3]; 0.495 nM drug, + 10 µM FKBP12) was 87 and the “residual kinase activity (LRRK2)” value ([3]; 0.495 nM drug, no FKBP12) was 95. The “residual kinase activity (LRRK2)” value ([3]; 1.52 nM drug, + 10 µM FKBP12) was 87, the “residual kinase activity (LRRK2)” value ([3]; 1.52 nM drug, no FKBP12) was 95 and the “residual kinase activity (LRRK2)” value ([3]; 4.57 nM drug, + 10 µM FKBP12) was 65. The “residual kinase activity (LRRK2)” value ([3]; 4.57 nM drug, no FKBP12) was 107, the “residual kinase activity (LRRK2)” value ([3]; 13.7 nM drug, no FKBP12) was 90 and the “residual kinase activity (LRRK2)” value ([3]; 41.2 nM drug, + 10 µM FKBP12) was 41. For the same molecule, the “residual kinase activity (LRRK2)” value ([3]; 41.2 nM drug, no FKBP12) was 70, the “residual kinase activity (LRRK2)” value ([3]; 123 nM drug, + 10 µM FKBP12) was 31 and the “residual kinase activity (LRRK2)” value ([3]; 123 nM drug, no FKBP12) was 47. For the same molecule, the “residual kinase activity (LRRK2)” value ([3]; 370 nM drug, no FKBP12) was 25, the “residual kinase activity (LRRK2)” value ([3]; 1110 nM drug, + 10 µM FKBP12) was 7 and the “residual kinase activity (LRRK2)” value ([3]; 1110 nM drug, no FKBP12) was 9. For the same molecule, the “residual kinase activity (LRRK2)” value ([3]; 3330 nM drug, no FKBP12) was 4, the “residual kinase activity (LRRK2)” value ([3]; 10000 nM drug, + 10 µM FKBP12) was 5 and the “residual kinase activity (LRRK2)” value ([3]; 10000 nM drug, no FKBP12) was 3. The remaining activity at 0.000495 µM [3, 5] was 91%, the remaining activity at 0.000495 µM [3, 6] was 101% and the remaining activity at 0.00152 µM [3, 7] was 91%. It also gave a remaining activity at 0.00152 µM [3, 8] of 106%, a remaining activity at 0.00457 µM [3, 9] of 78% and a remaining activity at 0.00457 µM [3, 10] of 94%. The remaining activity at 0.0137 µM [3, 11] was 57%, the remaining activity at 0.0137 µM [3, 12] was 89% and the remaining activity at 0.0412 µM [3, 13] was 38%. For the same molecule, the remaining activity at 0.0412 µM [3, 14] was 66%, the remaining activity at 0.123 µM [3, 15] was 24% and the remaining activity at 0.123 µM [3, 16] was 54%. The remaining activity at […] [3, 17] was 14%, the remaining activity at […] [3, 18] was 29% and the remaining activity at 1.11 µM [3, 19] was 8%. It also gave a remaining activity at 1.11 µM [3, 20] of 10%, a remaining activity at 3.33 µM [3, 21] of 5% and a remaining activity at 3.33 µM [3, 22] of 5%. For the same molecule, the remaining activity at 10 µM [3, 23] was 6%, the remaining activity at 10 µM [3, 24] was 5% and the IC50 ([3]; with 10 µM FKBP12) was 21 nM. The IC50 ([3]; without added FKBP12) was 107 nM.
In the case of `CCNc1nc(Nc2cc(F)c(C(=O)N3CCOCC3)cc2OC)ncc1C(F)(F)F` [GNE7915], the IC50 [2] is reported as 81 nM, the “P-LRRK2(S935) in RAW264.7 cells” value [2, 4] is reported as 61.9 and 64.8 and 53.2 and the “P-LRRK2(S935) in RAW264.7 cells” value ([2]; 100 nM compound, No RapaBlock) is reported as 56 and 55.7 and 48.1. For the same molecule, the “residual kinase activity (LRRK2)” value ([3]; 0.495 nM drug, no FKBP12) was 96, the “residual kinase activity (LRRK2)” value ([3]; 1.52 nM drug, + 10 µM FKBP12) was 66 and the “residual kinase activity (LRRK2)” value ([3]; 1.52 nM drug, no FKBP12) was 75. The “residual kinase activity (LRRK2)” value ([3]; 4.57 nM drug, + 10 µM FKBP12) was 39, the “residual kinase activity (LRRK2)” value ([3]; 4.57 nM drug, no FKBP12) was 41 and the “residual kinase activity (LRRK2)” value ([3]; 13.7 nM drug, + 10 µM FKBP12) was 15. For the same molecule, the “residual kinase activity (LRRK2)” value ([3]; 13.7 nM drug, no FKBP12) was 16, the “residual kinase activity (LRRK2)” value ([3]; 41.2 nM drug, + 10 µM FKBP12) was 9 and the “residual kinase activity (LRRK2)” value ([3]; 41.2 nM drug, no FKBP12) was 10. The “residual kinase activity (LRRK2)” value ([3]; 123 nM drug, + 10 µM FKBP12) was 6, the “residual kinase activity (LRRK2)” value ([3]; 123 nM drug, no FKBP12) was 3 and the “residual kinase activity (LRRK2)” value ([3]; 370 nM drug, + 10 µM FKBP12) was 5. For the same molecule, the “residual kinase activity (LRRK2)” value ([3]; 370 nM drug, no FKBP12) was 3, the “residual kinase activity (LRRK2)” value ([3]; 1110 nM drug, no FKBP12) was 3 and the “residual kinase activity (LRRK2)” value ([3]; 10000 nM drug, + 10 µM FKBP12) was 3. It also gave a remaining activity at 0.000495 µM [3, 5] of 84%, a remaining activity at 0.000495 µM [3, 6] of 78% and a remaining activity at 0.00152 µM [3, 7] of 68%. For the same molecule, the remaining activity at 0.00152 µM [3, 8] was 68%, the remaining activity at 0.00457 µM [3, 9] was 38% and the remaining activity at 0.00457 µM [3, 10] was 39%. For the same molecule, the remaining activity at 0.0137 µM [3, 11] was 17%, the remaining activity at 0.0137 µM [3, 12] was 18% and the remaining activity at 0.0412 µM [3, 13] was 8%. For the same molecule, the remaining activity at 0.0412 µM [3, 14] was 6%, the remaining activity at 0.123 µM [3, 15] was 5% and the remaining activity at 0.123 µM [3, 16] was 4%. It also gave a remaining activity at […] [3, 17] of 4%, a remaining activity at […] [3, 18] of 5% and a remaining activity at 1.11 µM [3, 19] of 5%. The remaining activity at 1.11 µM [3, 20] was 4%, the remaining activity at 3.33 µM [3, 21] was 5% and the remaining activity at 3.33 µM [3, 22] was 3%. For the same molecule, the remaining activity at 10 µM [3, 23] was 5%, the remaining activity at 10 µM [3, 24] was 3% and the IC50 ([3]; without added FKBP12) was 3 nM.
With `CCNc1nc(Nc2cc(F)c(C(=O)N3CCOCC3)cc2OC)ncc1C(F)(F)F` [GNE-7915] the “P-LRRK2(S935) in RAW264.7 cells” value ([2]; Conc 0.457247 nM, 0 nM = 100) was 93.9 and 94 and 94.8, the “P-LRRK2(S935) in RAW264.7 cells” value ([2]; Conc 1.37174 nM, 0 nM = 100) was 113.4 and 112.1 and 104.8 and the “P-LRRK2(S935) in RAW264.7 cells” value ([2]; Conc 4.11523 nM, 0 nM = 100) was 116.1 and 116.6 and 114.3. The “P-LRRK2(S935) in RAW264.7 cells” value ([2]; Conc 12.3457 nM, 0 nM = 100) was 104.6 and 91.1 and 91.3, the “P-LRRK2(S935) in RAW264.7 cells” value ([2]; Conc 37.037 nM, 0 nM = 100) was 75.2 and 70.5 and 70.4 and the “P-LRRK2(S935) in RAW264.7 cells” value ([2]; Conc 111.111 nM, 0 nM = 100) was 43.3 and 40.8 and 41. The “P-LRRK2(S935) in RAW264.7 cells” value ([2]; Conc 333.333 nM, 0 nM = 100) was 26.6 and 22.6 and 23.5 and the “P-LRRK2(S935) in RAW264.7 cells” value ([2]; Conc 1000 nM, 0 nM = 100) was 17.7 and 14.2 and 15.7.
